Patent US7935688B2, “Vitamin D-like compound” (Chugai Seiyaku Kabushiki Kaisha, priority 2005, dated 2011)

Experiments:
[1] = tested on: osteocalcin production in MG-63 cells; assay: Osteocalcin production in MG-63 cells (Gla-type Osteocalcin EIA); assay type: cell-based, human; details: (EC50 value of 1,25(OH)2D3/EC50 value of each compound)×100; eight hours exposure, then four days culture
Protocol: mg-63 was obtained from Institute for Fermentation, Osaka as a human osteoblast-like cell line. MG-63 cells were maintained and cultured in a MEM medium (Minimum essential medium; pH 7.0; Invitrogen Corporation, Carlsbad, Calif., USA) containing 5% fetal bovine serum (FBS; HyClone, Logan, Utah, USA).
MG-63 cells were adjusted to a density of 4.0×10^4 cells/mL, plated in a 96-well plate at 200 μL per well, and cultured under conditions of 37° C. and 5% carbon dioxide for 24 hours.
After removing the medium, MEM containing 5% charcoal/dextran treated FBS (DCC-FBS; Hyclone, Logan, Utah, USA) was added at 180 μL/well. The test substance (1.0×10^−3 mol/L) was diluted with dimethyl sulfoxide (DMSO) to 1.0×10^−4 mol/L, 1.0×10^−5 mol/L, 1.0×10^−6 mol/L, 1.0×10^−7 mol/L and 1.0×10^−8 mol/L. 1,25(OH)2D3 was used as a positive control. Like the test substance, 1,25(OH)2D3 was diluted with DMSO. 0.02 mL of the positive control and the test substance diluted 100-fold with MEM containing 5% DCC-FCS was added to each well of the 96-well plate, so that the final drug concentration was 1.0×10^−6 mol/L to 1.0×10^−11 mol/L. Thereafter, the cells were cultured under conditions of 37° C. and 5% carbon dioxide for eight hours.
After culturing for eight hours, the medium was removed, and MEM containing 5% DCC-FBS was added at 0.2 mL per well. The cells were cultured under conditions of 37° C. and 5% carbon dioxide for four days, and the medium was recovered. The medium was stored at −80° C. until osteocalcin measurement.
The Gla-type Osteocalcin EIA kit (Takara Bio Inc., Tokyo, Japan) was used for measurement of osteocalcin. Measurement was carried out using a microplate reader (Model 3550, Bio-Rad Laboratories, Inc., Hercules, Calif., USA) at a wavelength of 450 nm, and the results were analyzed by Microplate Manager III (Bio-Rad Laboratories, Inc., ver. 1.57).
The median effective concentration (EC50) was calculated from the osteocalcin concentration. Potency of induction of each compound was calculated as a ratio of EC50 of 1,25(OH)2D3 to EC50 of the compound. The relation between diseases and induction of osteocalcin production is described in Lancet (1984 May 19), 1 (8386), 1091-3; Steroids 66, 159-170 (2001); and Journal of Steroid Biochemistry & Molecular Biology 89-90, 269-271 (2004), for example.
The osteocalcin production level in MG-63 cells (%) was calculated by the formula: (EC50 value of 1,25(OH)2D3/EC50 value of each compound)×100.

[2] = tested on: Sprague-Dawley female rats subjected to ovariectomy (OVX); assay: Effect of increasing bone density in ovariectomized rats (dual X-ray bone densitometry); assay type: in vivo, rat; details: forcibly orally, five times per week, pathological control group (vehicle) = 100%
Protocol: The compound of the present invention was adjusted to each concentration using middle chain triglyceride (MCT) as a base. The adjusted solution was stored under shading at 4° C. until use.
Seven-week-old Sprague-Dawley (Crj:CD(SD)) female rats (Charles River Laboratories Japan, Inc.) were preliminarily bred for one week in an environment at a room temperature of 20 to 26° C., at a humidity of 35 to 75% and with an air change of 10 times or more per hour. The rats were allowed to freely take tap water and CE-2 (CLEA Japan, Inc.) as a feed.
After preliminary breeding, the animals were subjected to ovariectomy (OVX) and divided into groups (eight animals per group) on the day after the operation. Only MCT as a base was forcibly orally administered to the sham operation group (sham) and the pathological control group (OVX-vehicle) at a dose of 1 mL/kg (five times per week). The compound of the present invention was also forcibly orally administered at the same dose five times per week.
The animals were bred in a metabolic cage and urine was collected for 24 hours after the final administration. Blood was collected from the abdominal aorta under ether anesthesia for 24 hours after the final administration. The blood was allowed to stand at room temperature for 30 minutes and then centrifuged to provide serum. The femur and lumbar spine were collected and stored in 70% ethanol until bone density measurement.
The bone density of the femur and the second to fifth lumbar spines of the isolated lumbar spines was measured by the dual X-ray bone densitometry system DCS-600-EX (ALOKA). The distal femur bone density was measured for three […] regions out of 10 regions of the femur equally divided in length. The bone density in each site was described based on the bone density of the pathological control group (vehicle group) in each experiment as 100%.
The effects of the compounds of the present invention on the lumbar spine bone density are shown in Table 2 as an example of the obtained results.

| SMILES | Osteocalcin production level in MG-63 cells (%) [1] | Lumbar spine bone density (%) ([2]; 0.01 μg/kg) | Lumbar spine bone density (%) ([2]; 0.02 μg/kg) | Lumbar spine bone density (%) ([2]; 0.075 μg/kg) | Lumbar spine bone density (%) ([2]; 0.15 μg/kg) |
| --- | --- | --- | --- | --- | --- |
| CCC(O)(/C=C/c1ccc(C(CC)(CC)c2ccc(-c3ccc(CC(=O)O)cn3)c(C)c2)cc1C)CC [Example 81, [6-(4-{1-ethyl-1-[4-((E)-3-ethyl-3-hydroxy-1-pentenyl)-3-methyl-phenyl]-propyl}-2-methyl-phenyl)-pyridin-3-yl]-acetic Acid] | 652% | 115.66% | 115.66% | – | – |
| CCC(CC)(c1ccc(-c2cncc(CC(=O)O)c2)cc1)c1ccc(CCC2(O)CCCCC2)c(C)c1 [Example 149, {5-[4-(1-ethyl-1-{4-[2-(1-hydroxy-cyclohexyl)-ethyl]-3-methyl-phenyl}-propyl)-phenyl]-pyridin-3-yl}-acetic Acid] | 1305% | – | – | 111.40% | 116.00% |
